Earlier results on one compound are cited in US20200308123A1, “Novel formulation of metaxalone” (ICEUTICA PTY LTD., priority 2009, published 2020).

Where two headings read alike, the source gives them in different places.

Data set [1] concerns major CYP enzymes such as CYP1A2, CYP2B6, and CYP3A4. To be noted: in vitro.
In data set [2] the test system is Hepatic Cytochrome P450 enzymes.
In data set [3] the test system is major CYP enzymes such as CYP1A2, CYP2A6, CYP2B6, CYP2C8, CYP2C9, CYP2C19, CYP2D6, CYP2E1, and CYP3A4.

With `Cc1cc(C)cc(OCC2CNC(=O)O2)c1` (stereo not drawn) [Metaxalone], the “lipophilicity (log P)” value is listed as 2.42. Also, the “induction of major CYP enzymes” value in data set [1] was “does not significantly induce”. Also, where the note is “in 96% ethanol”, the solubility result is on record as “soluble”. Also, the solubility result (in chloroform) is listed as “freely soluble”. Besides, under “in ether”, the solubility result is reported as “practically insoluble”. The solubility entry (in methanol) is “soluble”. Where the note is “in water”, the solubility result is given as “practically insoluble”. Further, the “CYP enzymes that appear to metabolize metaxalone” value in data set [2] is “CYP1A2, CYP2D6, CYP2E1, and CYP3A4 and, to a lesser extent, CYP2C8, CYP2C9, and CYP2FC19”. Moreover, the “inhibition of major CYP enzymes” value in data set [3] is listed as “does not significantly inhibit”.
